Laboratory results from patent EP1247803A2, “Indolinone compounds suitable for modulation of protein kinases” (Sugen, Inc., priority 1996, dated 1998).

Key:
EGFR = molecular target: T1, EGFR (Homo sapiens, UniProt P00533); assay: EGFR ELISA assay (in vitro kinase activity, EGFR captured from A431 cell lysate); type: biochemical; design: concentration or dose not given beside the values
T1 construct: Add 7 ug A431 cell lysate per well (EGFR source); endogenous in cells; host or cells: A431
In short: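 Receptor autophosphorylation was read by ELISA: anti-phosphotyrosine serum and an HRP-linked secondary with ABTS substrate, absorbance at 410 nm (reference 630 nm). The reaction ran 5 min with 3 µM ATP and 5 mM MnCl2 and was quenched by 20 mM EDTA. Compounds were first incubated 30 min with antibody-captured EGFR from A431 cell lysate.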

PDGF-R = PDGF-R (Homo sapiens, UniProt P09619); assay: PDGF-R ELISA; type: cell-based
From the text: A PDGF-R ELISA is described in International Patent Publication No. WO 96/40116, published December 19, 1996 by Tang et al.

Sequence of PDGF-R (P09619 33-1106, species assumed): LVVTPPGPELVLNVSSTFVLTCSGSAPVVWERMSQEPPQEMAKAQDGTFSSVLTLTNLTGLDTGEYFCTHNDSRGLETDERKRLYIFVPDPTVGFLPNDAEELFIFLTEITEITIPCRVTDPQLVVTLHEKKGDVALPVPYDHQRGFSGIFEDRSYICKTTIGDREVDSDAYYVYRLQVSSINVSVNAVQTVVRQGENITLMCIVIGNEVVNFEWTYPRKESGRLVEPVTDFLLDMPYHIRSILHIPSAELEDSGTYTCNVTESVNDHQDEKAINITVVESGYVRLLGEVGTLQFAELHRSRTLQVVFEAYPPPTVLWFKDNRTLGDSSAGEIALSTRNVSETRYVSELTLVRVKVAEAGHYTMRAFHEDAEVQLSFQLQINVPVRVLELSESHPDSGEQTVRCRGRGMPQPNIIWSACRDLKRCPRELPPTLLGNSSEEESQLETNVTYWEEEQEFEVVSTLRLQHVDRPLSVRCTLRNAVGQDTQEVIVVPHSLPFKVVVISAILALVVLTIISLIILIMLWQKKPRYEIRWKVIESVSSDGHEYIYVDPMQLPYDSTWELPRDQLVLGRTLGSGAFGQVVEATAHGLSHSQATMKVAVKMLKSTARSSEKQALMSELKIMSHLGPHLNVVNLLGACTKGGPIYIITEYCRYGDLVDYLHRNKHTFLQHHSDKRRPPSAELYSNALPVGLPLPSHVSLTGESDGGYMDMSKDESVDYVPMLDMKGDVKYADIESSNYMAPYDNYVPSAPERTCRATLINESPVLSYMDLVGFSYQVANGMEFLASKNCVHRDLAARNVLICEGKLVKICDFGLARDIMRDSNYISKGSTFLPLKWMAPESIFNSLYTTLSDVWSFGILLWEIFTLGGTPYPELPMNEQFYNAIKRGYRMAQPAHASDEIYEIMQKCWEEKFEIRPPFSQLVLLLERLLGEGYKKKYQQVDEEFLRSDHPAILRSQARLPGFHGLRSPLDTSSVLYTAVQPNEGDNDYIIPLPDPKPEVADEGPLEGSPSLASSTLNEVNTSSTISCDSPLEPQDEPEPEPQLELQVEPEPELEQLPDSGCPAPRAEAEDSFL
T1 sequence (P00533 25-1210): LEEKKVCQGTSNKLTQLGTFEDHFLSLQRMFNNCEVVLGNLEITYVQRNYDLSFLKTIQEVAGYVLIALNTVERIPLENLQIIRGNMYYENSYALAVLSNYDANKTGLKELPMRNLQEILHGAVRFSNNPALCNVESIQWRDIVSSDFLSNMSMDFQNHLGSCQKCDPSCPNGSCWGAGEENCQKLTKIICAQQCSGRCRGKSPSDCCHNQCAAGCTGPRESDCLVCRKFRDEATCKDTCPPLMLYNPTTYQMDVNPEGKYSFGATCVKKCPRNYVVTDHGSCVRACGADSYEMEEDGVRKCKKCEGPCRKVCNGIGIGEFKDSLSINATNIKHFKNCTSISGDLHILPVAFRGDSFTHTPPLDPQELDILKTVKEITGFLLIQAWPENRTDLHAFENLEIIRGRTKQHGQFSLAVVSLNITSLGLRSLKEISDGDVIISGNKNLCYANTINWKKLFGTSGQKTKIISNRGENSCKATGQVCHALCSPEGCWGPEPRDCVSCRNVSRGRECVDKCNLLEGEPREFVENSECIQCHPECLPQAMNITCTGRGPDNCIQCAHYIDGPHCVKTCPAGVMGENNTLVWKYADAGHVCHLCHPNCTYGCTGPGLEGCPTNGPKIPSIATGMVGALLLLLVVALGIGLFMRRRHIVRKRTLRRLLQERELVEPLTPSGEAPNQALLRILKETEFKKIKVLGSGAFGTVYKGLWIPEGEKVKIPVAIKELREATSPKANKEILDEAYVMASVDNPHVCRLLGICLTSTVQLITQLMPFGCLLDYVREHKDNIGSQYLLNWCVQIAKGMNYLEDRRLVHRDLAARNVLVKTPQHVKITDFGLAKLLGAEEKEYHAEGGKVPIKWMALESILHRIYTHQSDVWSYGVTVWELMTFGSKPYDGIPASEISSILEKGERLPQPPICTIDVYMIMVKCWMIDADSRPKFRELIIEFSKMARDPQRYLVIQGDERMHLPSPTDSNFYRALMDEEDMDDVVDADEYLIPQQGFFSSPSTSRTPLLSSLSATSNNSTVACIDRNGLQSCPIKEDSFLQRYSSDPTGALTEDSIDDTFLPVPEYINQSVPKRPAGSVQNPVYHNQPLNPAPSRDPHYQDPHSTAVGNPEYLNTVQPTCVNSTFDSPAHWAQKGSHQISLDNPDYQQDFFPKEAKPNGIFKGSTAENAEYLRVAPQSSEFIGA

Structure (SMILES) | Biochem EGFR %Inhibition (EGFR) [%] | PDGF Kinase %Inhibition (PDGF-R) [%]
COc1ccc2[nH]cc(C=C3C(=O)Nc4ccc(Br)c(C)c43)c2c1 [10731/C09] | 16.8 | -6.3
COc1cc(C=C2C(=O)Nc3ccc(CCCl)cc32)cc(OC)c1OC [10730/G04] | -6.7 | 21.6
Cc1ccc2occ(C=C3C(=O)Nc4c(Br)cc(Br)cc43)c(=O)c2c1 [10731/A06] | 30.1 | 1.3
Cc1cc2occ(C=C3C(=O)Nc4ccc(Br)c(C)c43)c(=O)c2cc1C [10731/C03] | 9.1 | 11.3
Cc1ccc2occ(C=C3C(=O)Nc4ccc(I)cc43)c(=O)c2c1 [10731/B06] | 37.5 | 5.6
C=C(C)C1CC=C(C=C2C(=O)Nc3ccc(I)cc32)CC1 (centres unmarked) [10731/B04] | 31.3 | 0.3
CCn1c2ccccc2c2cc(C=C3C(=O)Nc4ccc(Br)c(C)c43)ccc21 [10731/C02] | -6.9 | -2.5
Cc1c(Br)ccc2c1C(=C1C(=O)N(C)c3ccccc31)C(=O)N2 [10731/C10] | 20.9 | 6.5
Cc1c(O)ccc(C=C2C(=O)Nc3ccc(Br)c(C)c32)c1O [10718/C09] | 26.5 | –
C=C(C)C1CC=C(C=C2C(=O)Nc3c(Br)cc(Br)cc32)CC1 (centres unmarked) [10731/A04] | 20.2 | 5.1
CN1C(=O)C(=C2C(=O)Nc3c(Br)cc(Br)cc32)c2ccccc21 [10731/A10] | 26.3 | -3.5
COC(=O)c1[nH]c(C)c(C=C2C(=O)Nc3ccc(Br)c(C)c32)c1C(=O)OC [10718/C07] | -4.9 | –
Cc1cc2occ(C=C3C(=O)Nc4c(Br)cc(Br)cc43)c(=O)c2cc1C [10731/A03] | 10.8 | 7.5
Cc1ccc2occ(C=C3C(=O)Nc4ccc(Br)c(C)c43)c(=O)c2c1 [10731/C06] | 23.1 | 7.0
COc1cc(OC)c(OC)cc1C=C1C(=O)Nc2ccc(CCCl)cc21 [10730/G03] | -6.9 | 44.0
O=C1Nc2c(Br)cc(Br)cc2C1=Cc1coc2ccc([N+](=O)[O-])cc2c1=O [10731/A07] | 39.4 | 4.6
CCOC(=O)c1cc(C=C2C(=O)Nc3ccc(Br)c(C)c32)oc1C [10718/C06] | 5.6 | –
O=C1Nc2ccc(CCCl)cc2C1=Cc1cc2ccccc2nc1Cl [10730/G08] | 9.5 | 20.3
CC(C)c1ccc2occ(C=C3C(=O)Nc4ccc(I)cc43)c(=O)c2c1 [10731/B05] | 35.9 | 17.9
Cc1c(Br)ccc2c1C(=Cc1coc3ccc([N+](=O)[O-])cc3c1=O)C(=O)N2 [10731/C07] | 35.5 | 31.3
O=C1Nc2c(Br)cc(Br)cc2C1=Cc1ccc[nH]1 [10717/A09] | 37.7 | –
COc1ccc2[nH]cc(C=C3C(=O)Nc4c(Br)cc(Br)cc43)c2c1 [10731/A09] | 21.9 | -14.4
CN1C(=O)C(=C2C(=O)Nc3ccc(I)cc32)c2ccccc21 [10731/B10] | 50.5 | 4.6

Structure (SMILES) | Biochem EGFR %Inhibition (EGFR) [%] | PDGF Kinase %Inhibition (PDGF-R) [%]
O=C1Nc2c(Br)cc(Br)cc2C1=Cc1c[nH]c(=O)[nH]c1=O [10731/A08] | 25.7 | -2.5
Cc1c(Br)ccc2c1C(=Cc1ccc(Cl)c([N+](=O)[O-])c1)C(=O)N2 [10718/C08] | 13.1 | –
CCn1c2ccccc2c2cc(C=C3C(=O)Nc4ccc(S(=O)(=O)NC)cc43)ccc21 [10731/D02] | 4.9 | 17.9
COc1ccc(C=C2C(=O)Nc3ccc(CCCl)cc32)c(OC)c1OC [10730/G02] | 20.8 | 18.1
Cc1cc2occ(C=C3C(=O)Nc4ccc(I)cc43)c(=O)c2cc1C [10731/B03] | 12.3 | 9.9
C=C(C)C1CC=C(C=C2C(=O)Nc3ccc(Br)c(C)c32)CC1 (centres unmarked) [10731/C04] | 31.0 | 15.1
O=C1Nc2ccc(CCCl)cc2C1=Cc1ccc(-c2ccccc2Cl)o1 [10730/G07] | 6.4 | 19.9
Cc1c(Br)ccc2c1C(=Cc1coc3ccc(C(C)C)cc3c1=O)C(=O)N2 [10731/C05] | 35.5 | 22.7
Cc1c(Br)ccc2c1C(=Cc1c[nH]c(=O)[nH]c1=O)C(=O)N2 [10731/C08] | 23.6 | -3.0
COC1CC(C=C2C(=O)Nc3ccc(S(=O)(=O)N4CCOCC4)cc32)C(OC)O1 (centres unmarked) [10730/F10] | 6.2 | 1.9
CCOC(=O)CCc1c(C(=O)OCC)[nH]c(C=C2C(=O)Nc3ccc(Br)c(C)c32)c1CC(=O)OCC [10718/C05] | 10.9 | –
COC1CC(C=C2C(=O)Nc3ccc(CCCl)cc32)C(OC)O1 (centres unmarked) [10730/G10] | 3.1 | 22.1
CCn1c2ccccc2c2cc(C=C3C(=O)Nc4c(Br)cc(Br)cc43)ccc21 [10731/A02] | 14.8 | -3.9
CC(C)c1ccc2occ(C=C3C(=O)Nc4c(Br)cc(Br)cc43)c(=O)c2c1 [10731/A05] | 34.3 | 14.1
CCn1c2ccccc2c2cc(C=C3C(=O)Nc4ccc(I)cc43)ccc21 [10731/B02] | 15.5 | 13.2
O=C1Nc2ccc(I)cc2C1=Cc1coc2ccc([N+](=O)[O-])cc2c1=O [10731/B07] | 29.1 | 6.0
CC(=O)n1cc(C=C2C(=O)Nc3ccc(CCCl)cc32)c2ccccc21 [10730/G05] | -18.2 | 65.0
O=C1Nc2ccc(I)cc2C1=Cc1c[nH]c(=O)[nH]c1=O [10731/B08] | 37.2 | -23.4
Cc1cc(C=C2C(=O)Nc3ccc(S(=O)(=O)N4CCOCC4)cc32)oc1C [10730/F11] | -24.1 | 4.5
O=C1Nc2ccc(S(=O)(=O)N3CCOCC3)cc2C1=Cc1coc2c(Br)cc(Br)cc2c1=O [10730/F09] | 17.9 | 13.3
CNS(=O)(=O)c1ccc2c(c1)C(=Cc1coc3cc(C)c(C)cc3c1=O)C(=O)N2 [10731/D03] | 16.3 | 28.4
Cc1cc(C=C2C(=O)Nc3ccc(CCCl)cc32)oc1C [10730/G11] | 26.2 | -0.3
COc1ccc2[nH]cc(C=C3C(=O)Nc4ccc(I)cc43)c2c1 [10731/B09] | 15.0 | 0.3
